# Experimental data published in the supplement of paper PMC4977894.
# ± gives the standard deviation of the averaged measurements.
# Assays:
# [1] = system: Homo sapiens (human subject panel, olfactory perception); test: perceived odor pleasantness rating (rating 0-100); higher = more pleasant
# How it was run: (§1)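 55 healthy human subjects (aged 18–50; six lowest performers excluded) sniffed 1 mL of each molecule diluted in paraffin oil, at high and low concentrations, in randomized order across ten visits of 100 stimuli. Subjects who reported smelling the stimulus rated it on a computerized slider starting at 50, which had to be moved; positions were converted to a 0–100 scale. Familiarity, intensity and pleasantness ratings are averages over subjects.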
# [2] = system: Homo sapiens (human subject panel, olfactory perception); test: perceived odor intensity rating (rating 0-100); higher = stronger perceived smell
# How it was run: as §1
# [3] = system: Homo sapiens (human subject panel, olfactory perception); test: perceived odor familiarity rating (rating 0-100); higher = more familiar
# How it was run: as §1
# [4] = odor dilution in paraffin oil: 1/10
# [5] = odor dilution in paraffin oil: 1/1,000
# [6] = odor dilution in paraffin oil: 1/100,000
SMILES,"perceived odor pleasantness rating [1, 4]","perceived odor pleasantness rating [1, 5]","perceived odor intensity rating [2, 4]","perceived odor intensity rating [2, 5]","perceived odor familiarity rating [3, 4]","perceived odor familiarity rating [3, 5]","perceived odor pleasantness rating [1, 6]","perceived odor intensity rating [2, 6]","perceived odor familiarity rating [3, 6]"
CC(=O)OC1CC(C)CCC1C(C)C [L-Menthyl acetate (replicate)],61.6 ± 21,58.9 ± 18,59.6 ± 29,34.3 ± 28,56.9 ± 30,39.2 ± 30,,,
CC(=O)OC1CC(C)CCC1C(C)C [L-Menthyl acetate],61.5 ± 25,53.4 ± 23,63.7 ± 26,15.4 ± 24,57.8 ± 31,45.6 ± 25,,,
CSCC[C@H](N)C(=O)O [L-Methionine],18.4 ± 21,31.5 ± 25,78.9 ± 23,48.3 ± 34,45.7 ± 36,41.6 ± 30,,,
N[C@@H](Cc1ccccc1)C(=O)O [L-Phenylalanine],39.9 ± 28,44.3 ± 29,34.4 ± 33,30.1 ± 30,39.1 ± 28,33.7 ± 31,,,
O=C(O)[C@@H]1CCCN1 [L-Proline],27.9 ± 28,22.8 ± 24,81.4 ± 20,60.2 ± 31,45.3 ± 30,45.8 ± 35,,,
N[C@@H](Cc1ccc(O)cc1)C(=O)O [L-Tyrosine],,44 ± 23,,30.7 ± 28,,37.4 ± 27,44.1 ± 30,25.3 ± 33,26.6 ± 26
CC(C)[C@H](N)C(=O)O [L-Valine],40.9 ± 25,50.5 ± 24,42.1 ± 29,33.1 ± 33,39.1 ± 31,41.5 ± 34,,,
CCCCCCCCCCCC(=O)O [Lauric acid (replicate)],28.8 ± 22,35.4 ± 22,72.2 ± 25,36 ± 32,50.6 ± 32,34.1 ± 27,,,
CCCCCCCCCCCC(=O)O [Lauric acid],28.7 ± 20,45.8 ± 25,71.6 ± 27,25.3 ± 24,49.1 ± 34,37.4 ± 33,,,
CCCCCCCCCCCCOC(C)=O [Lauryl acetate],,43.5 ± 24,,33 ± 30,,33.3 ± 27,49.5 ± 26,23 ± 27,36.6 ± 27
CCCCCCCCCCCCO [Lauryl alcohol],35.8 ± 25,43 ± 26,64.6 ± 28,24.8 ± 31,50.1 ± 29,32 ± 30,,,
C=CC(C)(O)CCC=C(C)C (stereo not drawn) [Linalool],,74.6 ± 19,,62.1 ± 26,,60.6 ± 32,66 ± 23,32.6 ± 25,39.9 ± 30
C=CC(C)(CCC=C(C)C)OC(C)=O (stereo not drawn) [Linalyl acetate],,56.9 ± 24,,29.8 ± 30,,39.3 ± 31,44.5 ± 21,31.5 ± 30,38.1 ± 31
CCCCC/C=C\C/C=C\CCCCCCCC(=O)O [Linoleic acid (replicate)],20.4 ± 24,31.7 ± 20,91.6 ± 11,66.6 ± 26,46.6 ± 35,53.2 ± 30,,,
CCCCC/C=C\C/C=C\CCCCCCCC(=O)O [Linoleic acid],13.9 ± 15,31.2 ± 21,90.8 ± 13,64.8 ± 23,48.7 ± 34,41.2 ± 27,,,
CC(C)CC(=O)O[C@@H]1C[C@H](C)CC[C@H]1C(C)C [Menthyl isovalerate],,56.9 ± 25,,33.9 ± 28,,39.5 ± 27,49.4 ± 24,18.6 ± 24,35 ± 33
COC(=O)c1ccccc1OC [Methyl 2-methoxybenzoate],,48.1 ± 26,,47.5 ± 31,,40.8 ± 31,45.9 ± 25,20.6 ± 24,37.5 ± 28
CCCCCCC#CC(=O)OC [Methyl 2-nonynoate],,65 ± 27,,71.1 ± 21,,61.9 ± 33,58.5 ± 29,55.3 ± 30,55.3 ± 28
